This note sets out measurements from PubChem BioAssay (NCI).

Structures are written as SMILES. “And” between values parts separate entries of the source, which are not always exact repeats. Identical values can stand only once.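 Cells were grown in 96-well plates and exposed to each compound for 48 hours at five concentrations; endpoints were interpolated linearly between bracketing concentrations, or set to the highest concentration if not reached. GI50 = concentration required for 50% inhibition of growth. Definition used: TGI = concentration required for complete inhibition of growth.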 Bounds are passed on as bounds.

Test systems include HL-60(TB) leukemia; NCI/ADR-RES ovarian; MDA-MB-231 breast; HCC-2998 colon; NCI-H226 lung; COLO 205 colon; RPMI-8226 leukemia; OVCAR-3 ovarian; IGROV1 ovarian; NCI-H460 lung.
Common to all, as to experiment: NCI anticancer screen, dose series, 48 h

Consider `COc1ccccc1/C=C1\COc2ccc(O)c(O)c2C1=O`, for which the GI50 was 0.407 µM in the test with HL-60(TB) leukemia; 1.88 µM with NCI/ADR-RES ovarian; 2.24 µM in the test with MDA-MB-231 breast; 1.76 µM in the test with HCC-2998 colon; 1.9 µM in the test with NCI-H226 lung; 3.14 µM with COLO 205 colon. In addition, the GI50 was 0.235 µM in the test on RPMI-8226 leukemia, 0.834 µM with OVCAR-3 ovarian, 1.46 µM in the test on IGROV1 ovarian and 1.83 µM with NCI-H460 lung. Further, the TGI in the test on HL-60(TB) leukemia was determined as 4.49 µM; in the test on NCI/ADR-RES ovarian, 6.64 µM; with MDA-MB-231 breast it was 10.2 µM; with HCC-2998 colon it was 3.25 µM; in the test with NCI-H226 lung it was 5.08 µM; in the test on COLO 205 colon, 8.98 µM. For the same molecule, the TGI in the test with RPMI-8226 leukemia amounted to 0.693 µM; with OVCAR-3 ovarian, 6.68 µM; in the test on IGROV1 ovarian, 4.21 µM; in the test with NCI-H460 lung, 4.09 µM.
With `O=P(O)(O)OC1C(OP(=O)(O)O)C(OP(=O)(O)O)C(OP(=O)(O)O)C(OP(=O)(O)O)C1OP(=O)(O)O` (stereo not drawn), the GI50 in the test with HL-60(TB) leukemia is above 2000 µM; in the test on NCI/ADR-RES ovarian it was above 2000 µM; in the test on MDA-MB-231 breast, above 2000 µM; with HCC-2998 colon it was above 2000 µM; in the test with NCI-H226 lung, above 1070 µM; in the test with COLO 205 colon, > 100 µM and > 500 µM and 1940 µM. The GI50 in the test with RPMI-8226 leukemia, in the test with OVCAR-3 ovarian, in the test with IGROV1 ovarian and in the test on NCI-H460 lung was above 2000 µM in each case. For the same molecule, the TGI with HL-60(TB) leukemia was above 2000 µM; in the test on NCI/ADR-RES ovarian it was above 2000 µM; in the test with MDA-MB-231 breast, above 2000 µM; in the test with HCC-2998 colon it was above 2000 µM; with NCI-H226 lung it was above 1850 µM; in the test with COLO 205 colon, above 2000 µM. Moreover, the TGI with RPMI-8226 leukemia, in the test on OVCAR-3 ovarian, in the test with IGROV1 ovarian and with NCI-H460 lung was above 2000 µM each time.
As for `COc1cc(-c2cc(-c3ccc(N(C)C)cc3)nc(N3CCC(O)CC3)c2C#N)cc(OC)c1OC`, the GI50 with HL-60(TB) leukemia was 0.574 µM; with NCI/ADR-RES ovarian it was 0.35 µM; in the test with MDA-MB-231 breast it was 0.392 µM; in the test on HCC-2998 colon, 0.54 µM; in the test on NCI-H226 lung, 0.717 µM; with COLO 205 colon it was 0.532 µM. The GI50 with RPMI-8226 leukemia is 0.181 µM; with OVCAR-3 ovarian, 1.46 µM; with IGROV1 ovarian, 0.555 µM; in the test on NCI-H460 lung it was 0.249 µM. In addition, the TGI in the test with HL-60(TB) leukemia was 4.13 µM; with NCI/ADR-RES ovarian, above 19.8 µM; in the test with MDA-MB-231 breast, 3.55 µM; in the test on HCC-2998 colon, 6.48 µM; in the test with COLO 205 colon it was 3.42 µM; in the test on RPMI-8226 leukemia it was 1.74 µM. Moreover, the TGI amounted to 3.97 µM with OVCAR-3 ovarian, 38.4 µM in the test with IGROV1 ovarian and 1.9 µM in the test on NCI-H460 lung.
Take `CC(=O)OCC1OC(n2cc(F)c(=O)[nH]c2=O)C(OC(C)=O)C1OC(C)=O` (stereo not drawn): the TGI in the test on HL-60(TB) leukemia is above 100 µM; with NCI/ADR-RES ovarian, above 100 µM; in the test on MDA-MB-231 breast, above 56.2 µM; in the test with HCC-2998 colon it was above 100 µM; in the test on NCI-H226 lung, above 100 µM; in the test on COLO 205 colon, above 83.2 µM. In addition, the TGI with RPMI-8226 leukemia was above 100 µM; in the test on OVCAR-3 ovarian, 91.8 µM; in the test on IGROV1 ovarian, above 100 µM; in the test on NCI-H460 lung it was above 100 µM.
Regarding `O=C(Cn1ccnc1[N+](=O)[O-])NCCO`, the TGI in the test with HL-60(TB) leukemia, in the test with NCI/ADR-RES ovarian, with MDA-MB-231 breast, with HCC-2998 colon, with NCI-H226 lung and with COLO 205 colon was above 100 µM in each case. The TGI in the test on RPMI-8226 leukemia, in the test on OVCAR-3 ovarian, in the test with IGROV1 ovarian and in the test with NCI-H460 lung was above 100 µM in each case.
Take `CCc1nc(N)nc(N)c1-c1ccc(Cl)cc1`: the GI50 was 6.67 µM in the test with HL-60(TB) leukemia; 5.93 µM with NCI/ADR-RES ovarian; 34.2 µM in the test on MDA-MB-231 breast; 47.9 µM with NCI-H226 lung; 56.6 µM with RPMI-8226 leukemia; 36.3 µM with OVCAR-3 ovarian. Moreover, the GI50 with IGROV1 ovarian is 11.4 µM; in the test with NCI-H460 lung, 1.73 µM. The TGI in the test with HL-60(TB) leukemia is above 100 µM; in the test on NCI/ADR-RES ovarian it was above 100 µM; with MDA-MB-231 breast, above 100 µM; with HCC-2998 colon it was > 100 µM and 25.7 µM; in the test with NCI-H226 lung, above 100 µM; in the test with COLO 205 colon, above 100 µM. Further, the TGI in the test with RPMI-8226 leukemia, in the test with OVCAR-3 ovarian, with IGROV1 ovarian and in the test on NCI-H460 lung was above 100 µM in each case.
For `C=C1C(=O)O[C@@H]2[C@@H]3O[C@@](C)(CC/C=C(\C)CCC[C@@H]2C)[C@H](O)C[C@@H]13`, the TGI turned out to be 8.1 µM in the test with HL-60(TB) leukemia; 4.53 µM in the test on NCI/ADR-RES ovarian; 7.18 µM in the test on MDA-MB-231 breast; 18 µM in the test on HCC-2998 colon; 26.3 µM in the test on NCI-H226 lung; 4.21 µM with COLO 205 colon. For the same molecule, the TGI in the test with RPMI-8226 leukemia is above 100 µM; with OVCAR-3 ovarian, 3.34 µM; in the test on IGROV1 ovarian, 5.78 µM; with NCI-H460 lung, 31.6 µM. Moreover, the GI50 is 1.67 µM with NCI/ADR-RES ovarian; 2.39 µM in the test on MDA-MB-231 breast; 12.5 µM in the test on NCI-H226 lung; 2.06 µM with COLO 205 colon; 1.7 µM in the test with OVCAR-3 ovarian; 2.06 µM with IGROV1 ovarian.
